Test results: US4132846A
Values after ≈ are worked out from the molar mass of the structure shown. Where two headings read alike, the source gives them in different places.

Legend:
Escherichia coli KY 8348 [1] = assay: MIC, agar dilution method at pH 7.2; type: cell-based; conditions: KY8348, Escherichia coli KY 8348 (gentamicin acetyltransferase Type I), read-out: Minimum Inhibitory Concentration
[2] = system: Salmonella typhosa ATCC 9992; assay: MIC, agar dilution method at pH 8.0; type: cell-based; conditions: Salmonella enterica, pH 8, read-out: minimum Inhibitory Concentration
Escherichia coli KY 8327 [3] = assay: MIC, agar dilution method at pH 7.2; type: cell-based; conditions: KY8327, Escherichia coli KY 8327 (produces gentamicin adenyltransferase), read-out: Minimum Inhibitory Concentration
From the text: (§1) Anti-bacterial Spectrum (Minimum Inhibitory Concentration, mcg/ml)
^1 produces gentamicin adenyltransferase

[4] = system: Staphylococcus aureus ATC 6538P; assay: MIC, agar dilution method at pH 8.0; type: cell-based; conditions: ATC6538P
Escherichia coli T-5 = assay: MIC, agar dilution method at pH 7.2; type: cell-based; conditions: T5, read-out: Minimum Inhibitory Concentration
From the text: as §1

Escherichia coli T-2 = assay: MIC, agar dilution method at pH 7.2; type: cell-based; conditions: T2, read-out: Minimum Inhibitory Concentration
From the text: as §1

[5] = system: Klebsiella pneumoniae No. 8045; assay: MIC, agar dilution method at pH 7.2; type: cell-based; conditions: read-out: Minimum Inhibitory Concentration
From the text: as §1

[6] = system: Pseudomonas aeruginosa BMH 1; assay: MIC, agar dilution method at pH 7.2; type: cell-based; conditions: BMH1, read-out: Minimum Inhibitory Concentration
From the text: as §1

[7] = system: Staphylococus aureus Smith; assay: MIC, agar dilution method at pH 7.2; type: cell-based
From the text: as §1

Proteus mirabilis 1287 = assay: MIC, agar dilution method at pH 7.2; type: cell-based; conditions: read-out: Minimum Inhibitory Concentration
From the text: as §1

Proteus morganii KY 4298 = assay: MIC, agar dilution method at pH 7.2; type: cell-based; conditions: Morganella morganii, KY4298, pH 7.2, read-out: Minimum Inhibitory Concentration
From the text: as §1

Sarcina lutea ATCC 9341 = assay: MIC, agar dilution method at pH 7.2; type: cell-based; conditions: Micrococcus luteus, ATCC9341, read-out: Minimum Inhibitory Concentration
From the text: as §1

[8] = system: Bacillus subtilis ATCC 6633; assay: MIC, agar dilution method at pH 7.2; type: cell-based; conditions: ATCC6633, read-out: Minimum Inhibitory Concentration
From the text: as §1

[9] = system: Staphylococcus aureus 209 P; assay: MIC, agar dilution method at pH 7.2; type: cell-based; conditions: read-out: Minimum Inhibitory Concentration
From the text: as §1

Proteus vulgaris 6897 = assay: MIC, agar dilution method at pH 7.2; type: cell-based
From the text: as §1

Escherichia coli KY 8349 = assay: MIC, agar dilution method at pH 7.2; type: cell-based; conditions: KY8349, Escherichia coli KY 8349 (neomycin-kanamycin phosphototransferase Type I), read-out: Minimum Inhibitory Concentration
From the text: ^4 produces neomycin-kanamycin phosphototransferase Type I

[10] = system: Shigella sonnei ATCC 9290; assay: microbe, parasite or virus in culture; type: cell-based; conditions: ATCC9290, agar dilution, pH 8.0, read-out: minimum Inhibitory Concentration
[11] = system: Pseudomonas aeruginosa KY 8516; assay: MIC, agar dilution method at pH 7.2; type: cell-based; conditions: KY8516, Pseudomonas aeruginosa KY 8516 (probably kanamycin acetyltransferase), read-out: Minimum Inhibitory Concentration
[12] = system: Pseudomonas aeruginosa KY 8511; assay: MIC, agar dilution method at pH 7.2; type: cell-based; conditions: KY8511, Pseudomonas aeruginosa KY 8511 (gentamicin acetyltransferase Type I and neomycin-kanamycin phosphotransferase Type I), read-out: Minimum Inhibitory Concentration
From the text: ^6 produces gentamicin acetyltransferase Type I and neomycin-kanamyci

[13] = system: Pseudomonas aeruginosa KY 8510; assay: MIC, agar dilution method at pH 7.2; type: cell-based; conditions: KY8510, Pseudomonas aeruginosa KY 8510 (kanamycin acetyltransferase), read-out: Minimum Inhibitory Concentration
Proteus rettgeri KY 4288 = assay: MIC, agar dilution method at pH 7.2; type: cell-based; conditions: Providencia rettgeri, KY4288, pH 7.2, read-out: Minimum Inhibitory Concentration
Escherichia coli ATC 26 = assay: MIC, agar dilution method at pH 8.0; type: cell-based; conditions: ATC26, read-out: minimum Inhibitory Concentration
Escherichia coli KY 8327 [14] = assay: MIC, agar dilution method at pH 8.0; type: cell-based; conditions: KY8327, Escherichia coli KY 8327 (produces gentamicin adenyltransferase), read-out: minimum Inhibitory Concentration
From the text: (§2) The former bacterium inactivates kanamycins and gentamicins by adenylation, and the latter inactivates gentamicins by acetylation.

Escherichia coli KY 8348 [15] = assay: MIC, agar dilution method at pH 8.0; type: cell-based; conditions: KY8348, Escherichia coli KY 8348 (produces gentamicin acetyltransferase Type I), read-out: minimum Inhibitory Concentration
From the text: as §2

Providencia sp. 164 = assay: MIC, agar dilution method at pH 7.2; type: cell-based; conditions: Providencia sp. 164 (gentamicin acetyltransferase Type II), read-out: Minimum Inhibitory Concentration
[16] = system: Proteus vulgaris ATCC 6897; assay: microbe, parasite or virus in culture; type: cell-based; conditions: ATCC6897, pH 8, read-out: minimum Inhibitory Concentration
[17] = system: Klebsiella pneumoniae ATCC 10031; assay: MIC, agar dilution method at pH 8.0; type: cell-based; conditions: ATCC10031, pH 8, read-out: minimum Inhibitory Concentration
[18] = system: Pseudomonas aeruginosa BMH 1; assay: MIC, agar dilution method at pH 8.0; type: cell-based; conditions: BMH1, read-out: minimum Inhibitory Concentration
Escherichia coli KY 8321 = assay: MIC, agar dilution method at pH 7.2; type: cell-based; conditions: KY8321, Escherichia coli KY 8321 (gentamicin adenyltransferase and neomycin-kanamycin phosphotransferase Type II), read-out: Minimum Inhibitory Concentration
From the text: ^2 produces gentamicin adenyltransferase and neomycin-kanamycin
phosphotransferase Type II

[19] = system: Pseudomonas aeruginosa KY 8512; assay: MIC, agar dilution method at pH 7.2; type: cell-based; conditions: KY8512, Pseudomonas aeruginosa KY 8512 (neomycin-kanamycin phosphotransferase Type I and II, streptomycin phosphotransferase), read-out: Minimum Inhibitory Concentration
From the text: as §1
^7 produces neomycin-kanamycin phosphotransferase Type I and Type II
and streptomycin phosphotransferase

[20] = system: Bacillus subtilis No. 10707; assay: MIC, agar dilution method at pH 8.0; type: cell-based
[21] = in water and methanol; cited from earlier work
[22] = Staphylococcus aureus ATC 6538P, agar dilution, pH 8.0, read-out: minimum Inhibitory Concentration
[23] = Staphylococus aureus Smith, agar dilution, pH 7.2, read-out: Minimum Inhibitory Concentration
[24] = Bacillus subtilis No. 10707, agar dilution, pH 8.0, read-out: minimum Inhibitory Concentration
[25] = Staphylococcus aureus, pH 8, read-out: minimum Inhibitory Concentration
[26] = Proteus vulgaris 6897, agar dilution, pH 7.2, read-out: Minimum Inhibitory Concentration
[27] = Bacillus subtilis, NO.10707, pH 8, read-out: minimum Inhibitory Concentration

Structure (SMILES) | MIC (Escherichia coli KY 8348 [1]) | MIC [2] | MIC (Escherichia coli KY 8327 [3]) | MIC [5] | MIC [6] | MIC (Proteus mirabilis 1287) | MIC [8] | MIC [9] | MIC (Escherichia coli KY 8349) | MIC [10] | MIC [12] | MIC [13] | MIC (Escherichia coli ATC 26) | MIC (Escherichia coli KY 8327 [14]) | MIC (Escherichia coli KY 8348 [15]) | MIC (Providencia sp. 164) | MIC [16] | MIC [17] | MIC [18] | MIC (Escherichia coli KY 8321) | other results
CNCC1CCC(N)C(OC2C(N)CC(NC(=O)C(O)CN)C(OC3OCC(C)(O)C(NC)C3O)C2O)O1 (racemic) [DL-form] | 0.2 µg/mL (≈ 0.363 µM) | 0.004 µg/mL (≈ 0.00726 µM) | 0.4 µg/mL (≈ 0.726 µM) | 0.2 µg/mL (≈ 0.363 µM) | 1.56 µg/mL (≈ 2.83 µM) | 3.12 µg/mL (≈ 5.67 µM) | 0.1 µg/mL (≈ 0.182 µM) | 0.1 µg/mL (≈ 0.182 µM) | 0.2 µg/mL (≈ 0.363 µM) | 0.016 µg/mL (≈ 0.0291 µM) | 3.12 µg/mL (≈ 5.67 µM) | 3.12 µg/mL (≈ 5.67 µM) | 0.008 µg/mL (≈ 0.0145 µM) | 0.004 µg/mL (≈ 0.00726 µM) | 0.004 µg/mL (≈ 0.00726 µM) | 12.5 µg/mL (≈ 22.7 µM) | 0.033 µg/mL (≈ 0.0599 µM) | 0.033 µg/mL (≈ 0.0599 µM) | 1.04 µg/mL (≈ 1.89 µM) | 0.2 µg/mL (≈ 0.363 µM) | MIC [4, 22]: 0.065 µg/mL (≈ 0.118 µM); MIC (Escherichia coli T-5): 0.4 µg/mL (≈ 0.726 µM); MIC (Escherichia coli T-2): 0.4 µg/mL (≈ 0.726 µM); MIC [7, 23]: 0.05 µg/mL (≈ 0.0908 µM); MIC (Proteus morganii KY 4298): 0.78 µg/mL (≈ 1.42 µM); MIC (Sarcina lutea ATCC 9341): 0.4 µg/mL (≈ 0.726 µM); MIC (Proteus vulgaris 6897; Proteus vulgaris, 6897, pH 7.2, read-out: Minimum Inhibitory Concentration): 3.12 µg/mL (≈ 5.67 µM); MIC [11]: 3.12 µg/mL (≈ 5.67 µM); MIC (Proteus rettgeri KY 4288): 0.78 µg/mL (≈ 1.42 µM); MIC [19]: 0.78 µg/mL (≈ 1.42 µM); MIC [20, 24]: 0.008 µg/mL (≈ 0.0145 µM)
CNCC1CCC(N)C(OC2C(N)CC(NC(=O)[C@H](O)CN)C(OC3OCC(C)(O)C(NC)C3O)C2O)O1 (stereo partly drawn) [D-form] | 0.2 µg/mL (≈ 0.363 µM) | 0.004 µg/mL (≈ 0.00726 µM) | 0.2 µg/mL (≈ 0.363 µM) | 0.2 µg/mL (≈ 0.363 µM) | 1.56 µg/mL (≈ 2.83 µM) | 3.12 µg/mL (≈ 5.67 µM) | 0.05 µg/mL (≈ 0.0908 µM) | 0.05 µg/mL (≈ 0.0908 µM) | 0.2 µg/mL (≈ 0.363 µM) | 0.008 µg/mL (≈ 0.0145 µM) | 3.12 µg/mL (≈ 5.67 µM) | 3.12 µg/mL (≈ 5.67 µM) | 0.004 µg/mL (≈ 0.00726 µM) | 0.004 µg/mL (≈ 0.00726 µM) | 0.004 µg/mL (≈ 0.00726 µM) | 6.25 µg/mL (≈ 11.4 µM) | 0.033 µg/mL (≈ 0.0599 µM) | 0.004 µg/mL (≈ 0.00726 µM) | 2.08 µg/mL (≈ 3.78 µM) | 0.2 µg/mL (≈ 0.363 µM) | MIC [4, 25]: 0.004 µg/mL (≈ 0.00726 µM); MIC (Escherichia coli T-2): 0.2 µg/mL (≈ 0.363 µM); MIC (Proteus vulgaris 6897; [26]): 0.78 µg/mL (≈ 1.42 µM); MIC [19]: 1.56 µg/mL (≈ 2.83 µM); MIC [20, 27]: 0.004 µg/mL (≈ 0.00726 µM)
NC[C@H]1O[C@H](O[C@H]2[C@H](O)[C@@H](O[C@H]3O[C@H](CO)[C@@H](O)[C@H](N)[C@H]3O)[C@H](N)C[C@@H]2N)[C@H](O)[C@@H](O)[C@@H]1O [Kanamycin A, kanamycin A, reference compound] | – | 0.08 µg/mL (≈ 0.165 µM) | – | – | – | – | – | – | – | – | – | – | – | – | – | – | – | – | – | – | MIC ([7]; pH 7.2, read-out: Minimum Inhibitory Concentration): 0.2 µg/mL (≈ 0.413 µM)
CNCC1CCC(N)C(OC2C(N)CC(NC(=O)[C@@H](O)CN)C(OC3OCC(C)(O)C(NC)C3O)C2O)O1 (stereo partly drawn) [L-form] | 0.2 µg/mL (≈ 0.363 µM) | 0.004 µg/mL (≈ 0.00726 µM) | 0.2 µg/mL (≈ 0.363 µM) | 0.2 µg/mL (≈ 0.363 µM) | 1.56 µg/mL (≈ 2.83 µM) | 3.12 µg/mL (≈ 5.67 µM) | 0.05 µg/mL (≈ 0.0908 µM) | 0.05 µg/mL (≈ 0.0908 µM) | 0.2 µg/mL (≈ 0.363 µM) | 0.008 µg/mL (≈ 0.0145 µM) | 3.12 µg/mL (≈ 5.67 µM) | 3.12 µg/mL (≈ 5.67 µM) | 0.004 µg/mL (≈ 0.00726 µM) | 0.004 µg/mL (≈ 0.00726 µM) | 0.004 µg/mL (≈ 0.00726 µM) | 6.25 µg/mL (≈ 11.4 µM) | 0.033 µg/mL (≈ 0.0599 µM) | 0.004 µg/mL (≈ 0.00726 µM) | 1.04 µg/mL (≈ 1.89 µM) | 0.4 µg/mL (≈ 0.726 µM) | MIC [4, 25]: 0.004 µg/mL (≈ 0.00726 µM); MIC (Proteus vulgaris 6897; [26]): 1.56 µg/mL (≈ 2.83 µM); MIC [19]: 0.78 µg/mL (≈ 1.42 µM); MIC [20, 27]: 0.004 µg/mL (≈ 0.00726 µM)
CNC[C@@H]1CC[C@@H](N)[C@@H](O[C@H]2[C@H](O)[C@@H](O[C@H]3OC[C@](C)(O)[C@H](NC)[C@H]3O)[C@H](N)C[C@@H]2N)O1 [XK-62-2, reference compound] | – | – | – | – | – | – | – | – | – | – | – | – | – | – | – | – | – | – | – | – | MIC [4, 22]: 0.008 µg/mL (≈ 0.0173 µM); MIC [7, 23]: < 0.05 µg/mL; solubility [21]: freely soluble; MIC [20, 24]: 0.004 µg/mL (≈ 0.00863 µM)
